# From patent publication EP0297661B1, “[(Bicyclic heterocyclyl)methyl and -hetero] substituted hexahydro-1H-azepines and pyrrolidines” (JANSSEN PHARMACEUTICA N.V., priority 1987, dated 1989)
# Tested on: compound 48/80-induced lethality
# Test: Protection of rats from compound 48/80-induced lethality
# Assay type: in vivo
# Conditions: Rattus norvegicus; male Wistar rats; test compound subcutaneously or orally (route per compound not stated); one hour later compound 48/80 0.5 mg/kg intravenously; dose protecting 50% of animals, survival after 4 hours; read-out: compound 48/80 lethality test in rats-ED₅₀ in mg/kg body weight
# Description: Protection of rats from compound 48/80-induced lethality.
# Compound 48/80, a mixture of oligomers obtained by condensation of 4-methoxy-N-methylbenzeneethanamine and formaldehyde has been described as a potent histamine releasing agent (Int. Arch. Allergy, 13, 336 (1958)). The protection from compound 48/80-induced lethal circulatory collapse appears to be simple way of evaluating quantitatively the antihistaminic activity of test compounds. Male rats of an inbred Wistar strain, weighing 240-260 g were used in the experiment. After overnight starvation the rats were transferred to conditioned laboratories (temp. = 21 ± 1°C, relative humidity = 65 ± 5%). The rats were treated subcutaneously or orally with a test compound or with the solvent (NaCl solution, 0.9%). One hour after treatment there was injected intravenously compound 48/80, freshly dissolved in water, at a dose of 0.5 mg/kg (0.2 ml/100 g of body weight). In control experiments, wherein 250 solvent-treated animals were injected with the standard dose of compound 48/80, not more than 2.8% of the animals survived after 4 hours. Survival after 4 hours is therefore considered to be a safe criterion of a protective effect of drug administration. Said ED₅₀-values are the values in mg/kg body weight at which the tested compounds protect 50% of the tested animals against […] lethality.
row,Structure (SMILES),ED50 [mg/kg]
1,"CN1CCCC(Nc2nc3cccnc3n2Cc2ccco2)CC1 (centres unmarked) [compound 196, 3-(2-furanylmethyl)-N-(hexahydro-1-methyl-1H-azepin-4-yl)-3H-imidazo[4,5-b]-pyridin-2-amine]",0.02
2,"CC(C)N1CCC(Nc2nc3ccccc3n2Cc2ccc(F)cc2)C1 (centres unmarked) [compound 204, 1-[(4-fluorophenyl)methyl]-N-[1-(1-methylethyl)-3-pyrrolidinyl]-1H-benzimidazol-2-amine]",0.04
3,Cc1ccc(Cn2c(NC3CCN(CCc4c(C)nc5ccccn5c4=O)C3)nc3ccccc32)o1 (centres unmarked) [compound 96],0.04
4,"O=c1[nH]c2ccccc2n1CCN1CCC(Nc2nc3ccccc3n2Cc2ccc(F)cc2)C1 (centres unmarked) [compound 125, 1-[2-[3-[[1-[(4-fluorophenyl)methyl]-1H-benzimidazol-2-yl]amino]-1-pyrrolidinyl]ethyl]-1,3-dihydro-2H-benzimidazol-2-one]",0.08
5,Cc1nc2ccccn2c(=O)c1CCN1CCC(Nc2nc3cccnc3n2Cc2cscn2)C1 (centres unmarked) [compound 95],0.04
6,Cc1ccc(Cn2c(NC3CCN(CCc4c(C)nc5ccccn5c4=O)C3)nc3cccnc32)o1 (centres unmarked) [compound 94],0.04
7,c1csc(Cn2c(NC3CCN(CCNc4nc5cnccc5[nH]4)C3)nc3ccccc32)c1 (centres unmarked) [compound 186],0.01
8,Cc1nc2n(c(=O)c1CCN1CCC(Nc3nc4cccnc4n3Cc3ccccn3)C1)CCCC2 (centres unmarked) [compound 99],0.04
9,"O=c1oc2ccccc2cc1CCN1CCCC(Nc2nc3cccnc3n2Cc2ccco2)CC1 (centres unmarked) [compound 109, 3-[2-[4-[[3-(2-furanylmethyl)-3H-imidazo[4,5-b]pyridin-2-yl]-amino]hexahydro-1H-azepin-1-yl]ethyl]-2H-1-benzopyran-2-one]",0.04
10,"Cc1ccc(Cn2c(NC3CCCN(CCO)CC3)nc3ccccc32)o1 (centres unmarked) [compound 211, hexahydro-4-[[1-[(5-methyl-2-furanyl)methyl]-1H-benzimidazol-2-yl]amino]-1H-azepine-1-ethanol]",0.04
11,"Cc1ccc(Cn2c(NC3CCCN(C)CC3)nc3ccccc32)o1 (centres unmarked) [compound 198, N-(hexahydro-1-methyl-1H-azepin-4-yl)-1-[(5-methyl-2-furanyl)methyl]-1H-benzimidazol-2-amine]",0.04
12,"Cc1ccc(Cn2c(NC3CCN(CCNc4nc5cnccc5[nH]4)C3)nc3cccnc32)o1 (centres unmarked) [compound 187, N-[1-[2-[(1H-imidazo[4,5-c]pyridin-2-yl)amino]ethyl]-3-pyrrolidinyl]-3-[(5-methyl-2-furanyl)methyl]-3H-imidazo[4,5-b]pyridin-2-amine]",0.04
13,"Fc1ccc(Cn2c(NC3CCN(CCNc4nccs4)C3)nc3ccccc32)cc1 (centres unmarked) [compound 168, 1-[(4-fluorophenyl)methyl]-N[1-[2-(2-thiazolylamino)ethyl]-3-pyrrolidinyl]-1H-benzimidazol-2-amine]",0.08
14,"Fc1ccc(Cn2c(NC3CCN(CCNc4ncccn4)C3)nc3ccccc32)cc1 (centres unmarked) [compound 166, 1-[(4-fluorophenyl)methyl]-N-[1-[-(2-pyrimidinylamino)ethyl]-3-pyrrolidinyl]-1H-benzimidazol-2-amine]",0.08
15,"CNC(=O)NCCN1CCC(Nc2nc3ccccc3n2Cc2ccc(F)cc2)C1 (centres unmarked) [compound 188, N-[2-[3-[[1-[(4-fluorophenyl)methyl]-1H-benzimidazol-2-yl]amino]-1-pyrrolidinyl]ethyl]-N′-methylurea]",0.01
16,"c1coc(Cn2c(NC3CCCNCC3)nc3cccnc32)c1 (centres unmarked) [compound 49, 3-(2-furanylmethyl)-N-(hexahydro-1H-azepin-4-yl)-3H-imidazo[4,5-b]pyridin2-amine]",0.04
17,"Cc1ccc(Cn2c(NC3CCCN(C)CC3)nc3cccnc32)o1 (centres unmarked) [compound 207, N-(hexahydro-1-methyl-1H-azepin-4-yl)-3-[(5-methyl-2-furanyl)methyl]-3H-imidazo[4,5-b]pyridin-2-amine]",0.01
18,COc1ccc(CCN2CCCC(Nc3nc4cccnc4n3Cc3ccc(C)o3)CC2)cc1 (centres unmarked) [compound 68],0.04
19,COc1ccc(CCN2CCC(Nc3nc4cccnc4n3Cc3ccccn3)C2)cc1 (centres unmarked) [compound 61],0.08
20,Cc1ccc(Cn2c(NC3CCN(CCc4c(C)nc5n(c4=O)CCCC5)C3)nc3ccccc32)o1 (centres unmarked) [compound 102],0.04
